One test deals with T1, human 11β-HSD1 (Homo sapiens, UniProt P28845).
T1 construct: The obtained PCR products of about 0.9 kbp, 1.2 kbp, and 0.9 kbp were subcloned into an expression vector pcDNA3.1+/Zeo; expressed in transfected cells
The experiment in a line: Enzyme inhibitory activity, human 11β-HSD1 (lysate of stably expressing HEK293 cells, cortisol by competitive ELISA). Type of test: biochemical. The note with it: human 11β-HSD1, cell lysate, 37° C. for 1 hour, read-out: h HSD1 in vitro assay (IC50 uM). The protocol: (§1) 1. Human 11β-HSD1-, Human 11β-HSD2- and Mouse 11β-HSD1-Gene Clonings and Establishment of Stably Expressing Cells
(§2) Human 11β-HSD1-, human 11β-HSD2-, and mouse 11β-HSD1-gene clonings were conducted using as a template a reverse transcription product of human-liver RNA, human-kidney RNA (CELL APPLICATIONS), and mouse-kidney RNA respectively, by means of PCR cloning with reference to nucleotide sequences of Genbank Accession Nos. NM_005525, NM_000196, and NM_008288. The obtained PCR products of about 0.9 kbp, 1.2 kbp, and 0.9 kbp were subcloned into an expression vector pcDNA3.1+/Zeo (Invitrogen).
(§3) Human 11β-HSD1- and human 11β-HSD2-expressing vectors were transfected into human kidney-derived cell line, HEK293 cells, using a transfection reagent, jet PEI (Funakoshi). Mouse 11β-HSD1 was transfected to Chinese hamster ovary-derived cell line, CHO-K1 cells. Selection was conducted with 200-400 μg/mL of zeocine (Invitrogen) to provide stably expressing-cell clones. The stably expressing cells were suspended in buffer solution A (20 mmol/L Tris-HCl, pH 7.4, 250 mmol/L sucrose, 1 mmol/L EGTA, 1 mmol/L EDTA, 1 mmol/L MgCl2), sonicated, and then stored at −80° C.
(§4) 2. Assay of Enzyme Inhibitory Activity
(§5) An enzymatic reaction was conducted using a polystyrene 96-well plate. Each well was added with 1 μL of a test agent dissolved in DMSO and then diluted (0.003 to 3 mmol/L), and further added with 10 μL of cell lysate diluted to a concentration of 0.1 mg/mL to 0.4 mg/mL. Next, 90 μL of buffer solution A containing substrate (100 nmol/L cortisone or cortisol) and coenzyme (400 μmol/L NADPH or NAD+) was added and the mixture was incubated at 37° C. for 1 hour. The enzymatic reaction was stopped by treating at 95° C. for 3 minutes. Cortisol that was present in the reaction solution was determined by a competitive ELISA shown below.
(§6) Anti-rabbit IgG antibody (Chemi-con) diluted to 2 μg/mL with carbonate buffer solution (pH 9.6) was added in 100 μL each to a 96-well immuno plate (Nunc) and immobilized by an incubation at 4° C. overnight. 50 μL of enzymatic reaction solution was put onto the plates, and further, anti-cortisol antibody (Cosmo Bio) and HRP-labeled cortisol (Cosmo Bio), diluted with buffer solution B (25 mmol/L Tris-HCl pH 7.4, 137 mmol/L NaCl, 2.68 mmol/L KCl), were added in 50 μL respectively and incubated at 4° C. overnight. After washed three times with buffer solution B containing 0.05% Tween 20, the plates were allowed to develop color by adding 100 μL of color reagent, TMB (Moss). The color reaction was stopped by 25 μL of 1 mol/L sulfuric acid and the absorbance was determined at 450 nm with a microplate reader (Molecular Device, VersaMax).
(§7) The values of human 11β-HSD1, human 11β-HSD2, and mouse 11β-HSD1 activities were subtracted from 100, and the resultant values were regarded as the respective 11β-HSD inhibition rates of example compounds. […] The comparison of human 11β-HSD1 and human 11β-HSD2 inhibiting activities is shown in Table 1, and the comparison of human 11β-HSD1 and mouse 11β-HSD1 inhibiting activities is shown in Table 2.
(In general: ELISA stands for enzyme-linked immunosorbent assay.)

The next test has as its target T2, mouse 11β-HSD1 (Mus musculus, UniProt P50172).
T2 construct: The obtained PCR products of about 0.9 kbp, 1.2 kbp, and 0.9 kbp were subcloned into an expression vector pcDNA3.1+/Zeo; expressed in transfected cells
The test can be described thus: Enzyme inhibitory activity, mouse 11β-HSD1 (lysate of stably expressing CHO-K1 cells, cortisol by competitive ELISA). The format is biochemical. The note with it: Table 2; mouse 11β-HSD1, cell lysate, 37° C. for 1 hour; read-out: m HSD1 in vitro assay (IC50 uM). The protocol:
as §1, §2, §3, §4, §5, §6, §7

Where two headings read alike, the source gives them in different places.

T2 sequence (P50172 whole entry): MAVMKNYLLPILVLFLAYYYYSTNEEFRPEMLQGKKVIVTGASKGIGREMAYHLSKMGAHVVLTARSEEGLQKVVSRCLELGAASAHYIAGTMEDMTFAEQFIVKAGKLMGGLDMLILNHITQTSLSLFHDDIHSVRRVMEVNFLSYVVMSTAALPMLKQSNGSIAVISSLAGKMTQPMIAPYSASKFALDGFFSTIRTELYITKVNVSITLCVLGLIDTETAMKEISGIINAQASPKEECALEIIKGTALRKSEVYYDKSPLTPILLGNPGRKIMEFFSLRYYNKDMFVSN
T1 sequence (P28845 whole entry): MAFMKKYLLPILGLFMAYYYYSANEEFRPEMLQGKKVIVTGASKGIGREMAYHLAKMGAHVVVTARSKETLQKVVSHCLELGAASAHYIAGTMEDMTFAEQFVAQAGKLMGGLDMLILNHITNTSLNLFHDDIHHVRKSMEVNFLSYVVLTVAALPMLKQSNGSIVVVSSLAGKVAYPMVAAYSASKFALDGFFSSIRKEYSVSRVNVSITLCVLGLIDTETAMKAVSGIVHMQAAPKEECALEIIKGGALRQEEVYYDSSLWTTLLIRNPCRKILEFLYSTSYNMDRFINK

As usually defined, the IC50 is the concentration that gives 50% inhibition. Turning to `CC1(C)C(=O)N(C2C3CC4CC(C3)CC2C4)N1Cc1cccc(F)c1` (stereo not shown) [Example 22, 1-(3-fluorobenzyl)-4,4-dimethyl-2-(adamantan-2-yl)-1,2-diazetidin-3-one], the IC50 came to 0.64 µM on human 11β-HSD1 (Table 2) and 0.079 µM on mouse 11β-HSD1.
Taken in the same sequence, the figures for `CC1(C)C(=O)N(C2C3CC4CC(C3)CC2C4)N1Cc1ccccc1Cl` (stereo not shown) [Example 27, 1-(2-chlorobenzyl)-4,4-dimethyl-2-(adamantan-2-yl)-1,2-diazetidin-3-one] were 0.03 µM and 0.094 µM.
For `CC1(C)C(=O)N(C2C3CC4CC(C3)CC2C4)N1Cc1cccc(Cl)c1` (stereo not shown) [Example 28, 1-(3-chlorobenzyl)-4,4-dimethyl-2-(adamantan-2-yl)-1,2-diazetidin-3-one] the same measures were 0.44 µM and 0.073 µM.
For `CC1(C)C(=O)N(C2C3CC4CC(C3)CC2C4)N1Cc1cccc([N+](=O)[O-])c1` (stereo not shown) [Example 29, 4,4-dimethyl-1-(3-nitrobenzyl)-2-(adamantan-2-yl)-1,2-diazetidin-3-one], the IC50 at human 11β-HSD1 (Table 2) came out at 0.6 µM; at mouse 11β-HSD1 it was 0.37 µM.
For `Cc1ccccc1CN1N(C2C3CC4CC(C3)CC2C4)C(=O)C1(C)C` (stereo not shown) [Example 30, 4,4-dimethyl-1-(2-methylbenzyl)-2-(adamantan-2-yl)-1,2-diazetidin-3-one], the IC50 turned out to be 0.047 µM on human 11β-HSD1 (Table 2) and 0.1 µM at mouse 11β-HSD1.
For `CC1(C)C(=O)N(C2C3CC4CC(C3)CC2C4)N1Cc1ccc([N+](=O)[O-])cc1` (stereo not shown) [Example 31, 4,4-dimethyl-1-(4-nitrobenzyl)-2-(adamantan-2-yl)-1,2-diazetidin-3-one] the same measures were 0.96 µM and 0.3 µM.
Taken in the same sequence, the figures for `Cc1cccc(CN2N(C3C4CC5CC(C4)CC3C5)C(=O)C2(C)C)c1` (stereo not shown) [Example 32, 4,4-dimethyl-1-(3-methylbenzyl)-2-(adamantan-2-yl)-1,2-diazetidin-3-one] were 0.25 µM and 0.054 µM.
For `CC1(C)C(=O)N(C2C3CC4CC(C3)CC2C4)N1Cc1cccc(Br)c1` (stereo not shown) [Example 33, 1-(3-bromobenzyl)-4,4-dimethyl-2-(adamantan-2-yl)-1,2-diazetidin-3-one] the same measures were 0.38 µM and 0.086 µM.
For the compound `CC1(C)C(=O)N(C2C3CC4CC(C3)CC2C4)N1Cc1cccc(I)c1` (stereo not shown) [Example 35, 1-(3-iodobenzyl)-4,4-dimethyl-2-(adamantan-2-yl)-1,2-diazetidin-3-one], the IC50 on human 11β-HSD1 (Table 2) stood at 0.44 µM; at mouse 11β-HSD1, 0.15 µM.
Taken in the same sequence, the figures for `CC1(C)C(=O)N(C2C3CC4CC(C3)CC2C4)N1Cc1ccc(C(F)(F)F)cc1` (stereo not shown) [Example 36, 4,4-dimethyl-2-(adamantan-2-yl)-1-[4-(trifluoromethyl)benzyl]-1,2-diazetidin-3-one] were 0.69 µM and 0.21 µM.
For the compound `CC1(C)C(=O)N(C2C3CC4CC(C3)CC2C4)N1Cc1ccccc1F` (stereo not shown) [Example 38, 1-(2-fluorobenzyl)-4,4-dimethyl-2-(adamantan-2-yl)-1,2-diazetidin-3-one], the figures for the half-inhibitory concentration (IC50) at human 11β-HSD1 (Table 2) and on mouse 11β-HSD1 were 0.26 µM and 0.1 µM, respectively.
In the case of `CC1(C)C(=O)N(C2C3CC4CC(C3)CC2C4)N1Cc1ccccc1C(F)(F)F` (stereo not shown) [Example 42, 4,4-dimethyl-2-(adamantan-2-yl)-1-[2-(trifluoromethyl)benzyl]-1,2-diazetidin-3-one], the IC50 on human 11β-HSD1 (Table 1) amounted to 0.025 µM; on mouse 11β-HSD1 it was 0.24 µM.
In the case of `CC1(C)C(=O)N(C2C3CC4CC(C3)CC2C4)N1Cc1cccc(Cl)c1Cl` (stereo not shown) [Example 43, 1-(2,3-dichlorobenzyl)-4,4-dimethyl-2-(adamantan-2-yl)-1,2-diazetidin-3-one], the values for the IC50 at human 11β-HSD1 (Table 2) and at mouse 11β-HSD1 were 0.072 µM and 0.074 µM, respectively.
For `CC1(C)C(=O)N(C2C3CC4CC(C3)CC2C4)N1Cc1cc(Cl)ccc1Cl` (stereo not shown) [Example 44, 1-(2,5-dichlorobenzyl)-4,4-dimethyl-2-(adamantan-2-yl)-1,2-diazetidin-3-one] the same measures were 0.044 µM and 0.073 µM.
With `CC1(C)C(=O)N(C2C3CC4CC(C3)CC2C4)N1Cc1ccc(F)cc1Cl` (stereo not shown) [Example 45, 1-(2-chloro-4-fluorobenzyl)-4,4-dimethyl-2-(adamantan-2-yl)-1,2-diazetidin-3-one], the IC50 on human 11β-HSD1 (Table 2) was 0.079 µM; on mouse 11β-HSD1, 0.14 µM.
Turning to `CC1(C)C(=O)N(C2C3CC4CC(C3)CC2C4)N1Cc1c(F)cccc1Cl` (stereo not shown) [Example 46, 1-(2-chloro-6-fluorobenzyl)-4,4-dimethyl-2-(adamantan-2-yl)-1,2-diazetidin-3-one], the IC50 on human 11β-HSD1 (Table 2) is 0.23 µM; on mouse 11β-HSD1 it was 0.45 µM.
Taken in the same sequence, the figures for `CC1(C)C(=O)N(C2C3CC4CC(C3)CC2C4)N1Cc1ccccc1[N+](=O)[O-]` (stereo not shown) [Example 47, 4,4-dimethyl-1-(2-nitrobenzyl)-2-(adamantan-2-yl)-1,2-diazetidin-3-one] were 0.2 µM and 0.58 µM.
Take `CC1(C)C(=O)N(C2C3CC4CC(C3)CC2C4)N1Cc1ccccc1-c1ccccc1` (stereo not shown) [Example 49, 1-(biphenyl-2-ylmethyl)-4,4-dimethyl-2-(adamantan-2-yl)-1,2-diazetidin-3-one]: the IC50 on human 11β-HSD1 (Table 1) was 0.8 µM; on mouse 11β-HSD1, 0.31 µM.
For `COc1ccccc1CN1N(C2C3CC4CC(C3)CC2C4)C(=O)C1(C)C` (stereo not shown) [Example 51, 1-(2-methoxybenzyl)-4,4-dimethyl-2-(adamantan-2-yl)-1,2-diazetidin-3-one], the IC50 was 0.082 µM at human 11β-HSD1 (Table 2) and 0.58 µM on mouse 11β-HSD1.
For `CC1(C)C(=O)N(C2C3CC4CC(C3)CC2C4)N1Cc1ccc(Br)cc1` (stereo not shown) [Example 53, 1-(4-bromobenzyl)-4,4-dimethyl-2-(adamantan-2-yl)-1,2-diazetidin-3-one] the same measures were 0.35 µM and 0.06 µM.
As to `COc1cccc(CN2N(C3C4CC5CC(C4)CC3C5)C(=O)C2(C)C)c1` (stereo not shown) [Example 54, 1-(3-methoxybenzyl)-4,4-dimethyl-2-(adamantan-2-yl)-1,2-diazetidin-3-one], the results for the concentration for half-maximal inhibition (IC50) at human 11β-HSD1 (Table 2) and at mouse 11β-HSD1 were 0.3 µM and 0.036 µM, respectively.
Taken in the same sequence, the figures for `Cc1ccc(CN2N(C3C4CC5CC(C4)CC3C5)C(=O)C2(C)C)c(C)c1` (stereo not shown) [Example 55, 1-(2,4-dimethylbenzyl)-4,4-dimethyl-2-(adamantan-2-yl)-1,2-diazetidin-3-one] were 0.067 µM and 0.069 µM.
For `Cc1ccc(C)c(CN2N(C3C4CC5CC(C4)CC3C5)C(=O)C2(C)C)c1` (stereo not shown) [Example 56, 1-(2,5-dimethylbenzyl)-4,4-dimethyl-2-(adamantan-2-yl)-1,2-diazetidin-3-one] the same measures were 0.054 µM and 0.052 µM.
Taken in the same sequence, the figures for `Cc1c(F)cccc1CN1N(C2C3CC4CC(C3)CC2C4)C(=O)C1(C)C` (stereo not shown) [Example 58, 1-(3-fluoro-2-methylbenzyl)-4,4-dimethyl-2-(adamantan-2-yl)-1,2-diazetidin-3-one] were 0.026 µM and 0.061 µM.
Consider `CC1(C)C(=O)N(C2C3CC4CC(C3)CC2C4)N1Cc1cccc(Cl)c1F` (stereo not shown) [Example 59, 1-(3-chloro-2-fluorobenzyl)-4,4-dimethyl-2-(adamantan-2-yl)-1,2-diazetidin-3-one], for which the values for the IC50 on human 11β-HSD1 (Table 2) and at mouse 11β-HSD1 were 0.25 µM and 0.064 µM, respectively.
For `CC1(C)C(=O)N(C2C3CC4CC(C3)CC2C4)N1Cc1cccc2c1OCO2` (stereo not shown) [Example 61, 1-(1,3-benzodioxol-4-ylmethyl)-4,4-dimethyl-2-(adamantan-2-yl)-1,2-diazetidin-3-one] the same measures were 0.23 µM and 0.3 µM.

Source of the values: patent publication US8252781B2, “1,2-diazetidin-3-one derivatives and drugs containing same” (Kowa Company, Ltd., priority 2008, dated 2012).
